From PMC7859440, “Transporter Gene Regulation in Sandwich Cultured Human Hepatocytes Through the Activation of Constitutive Androstane Receptor (CAR) or Aryl Hydrocarbon Receptor (AhR)” (Frontiers in Pharmacology, 2021)
Values joined by “and” are separate entries in the source; they are usually repeats but may differ in a detail not shown here. Equal values may be shown once.

How the values were obtained:
[1] = system: CYP1A1; assay: in vitro
Protocol: (§1) Cryopreserved human hepatocytes were quickly thawed at 37°C and then transferred into hepatocyte thawing medium. Cells were pelleted at 100 × g for 10 min and then resuspended in hepatocyte complete plating medium (CP medium). The cells were then seeded at 65,000 cells per well in 96-well collagen I coated plates. After cell attachment (4–6 h post-seeding), CP medium was exchanged for ice-cold complete incubation medium (HI medium) containing BD Matrigel™ at the concentration of 0.25 mg/ml. The cells were then incubated overnight at 37°C in a humidified 5% CO2 incubator. […] Cell death or loss of adhesion of hepatocytes during or after treatment were examined by microscopy.
A RNeasy 96 Kit (Qiagen) was used to extract the total cellular RNA from sandwich cultured hepatocytes in 96-well plates following the manufacturer's instructions. A total volume of 200 μL RNA was obtained via the column elution provided in the RNeasy kit. Five μL RNA extraction was mixed with TaqMan® Fast Virus 1-Step Master Mix (Life Technologies) in a final reaction volume of 20 μL and qRT-PCR was achieved using a QuantStudio 6 Flex Real-Time PCR System (Life Technologies), following the manufacturer's instructions. β-actin mRNA expression in the SCHH was used as a house-keeping gene for the normalization of target gene expressions. The mRNA levels in SCHH treated with AhR or CAR activators were expressed by a fold change, compared to the gene expressions without the treatment. The 2^−ΔΔCt method ([Livak and Schmittgen, 2001]) was used to analyze the relative changes in gene expression, where the Ct is the cycle number at which the fluorescence in the reaction crosses the preset arbitrary threshold; the ΔCt represents the difference between the Ct target and reference and the ΔΔCt is the difference between the ΔCt of the test and the ΔCt of the preassigned control. Gene expression for each condition is expressed as a fold-change of mean ± standard deviation (SD) from three independent donors (each performed in triplicate). All primer and probe sets were purchased from Life Technologies (Table 2). […]

[2] = system: CYP3A4; assay: in vitro; conditions: greater than 50% reduction, in only two donors among three lots of hepatocytes
Protocol: as §1
A RNeasy 96 Kit (Qiagen) was used to extract the total cellular RNA from sandwich cultured hepatocytes in 96-well plates following the manufacturer's instructions. A total volume of 200 μL RNA was obtained via the column elution provided in the RNeasy kit. Five μL RNA extraction was mixed with TaqMan® Fast Virus 1-Step Master Mix (Life Technologies) in a final reaction volume of 20 μL and qRT-PCR was achieved using a QuantStudio 6 Flex Real-Time PCR System (Life Technologies), following the manufacturer's instructions. β-actin mRNA expression in the SCHH was used as a house-keeping gene for the normalization of target gene expressions. The mRNA levels in SCHH treated with AhR or CAR activators were expressed by a fold change, compared to the gene expressions without the treatment. […] Gene expression for each condition is expressed as a fold-change of mean ± standard deviation (SD) from three independent donors (each performed in triplicate). All primer and probe sets were purchased from Life Technologies (Table 2). When concentration-dependent induction observed, the in vitro induction mRNA data were fitted using the sigmoid 3-parameter equation in GraphPad Prism (La Jolla, CA) to estimate the in vitro concentration of inducer that produced half the maximum induction values (EC50).

[3] = system: CYP2C9; conditions: SCHH, 72 h; TCDD 50 nM, OP 50 µM, CITCO 5 µM, PB 1,000 µM (highest conc.); mean ± SD, three donors
Protocol: as §1
A RNeasy 96 Kit (Qiagen) was used to extract the total cellular RNA from sandwich cultured hepatocytes in 96-well plates following the manufacturer's instructions. […] The 2^−ΔΔCt method ([Livak and Schmittgen, 2001]) was used to analyze the relative changes in gene expression, where the Ct is the cycle number at which the fluorescence in the reaction crosses the preset arbitrary threshold; the ΔCt represents the difference between the Ct target and reference and the ΔΔCt is the difference between the ΔCt of the test and the ΔCt of the preassigned control. Gene expression for each condition is expressed as a fold-change of mean ± standard deviation (SD) from three independent donors (each performed in triplicate). […]

[4] = system: UGT1A1; assay: gene induction in sandwich-cultured human hepatocytes (qRT-PCR)
Protocol: as §1
(§2) A RNeasy 96 Kit (Qiagen) was used to extract the total cellular RNA from sandwich cultured hepatocytes in 96-well plates following the manufacturer's instructions. A total volume of 200 μL RNA was obtained via the column elution provided in the RNeasy kit. Five μL RNA extraction was mixed with TaqMan® Fast Virus 1-Step Master Mix (Life Technologies) in a final reaction volume of 20 μL and qRT-PCR was achieved using a QuantStudio 6 Flex Real-Time PCR System (Life Technologies), following the manufacturer's instructions. β-actin mRNA expression in the SCHH was used as a house-keeping gene for the normalization of target gene expressions. The mRNA levels in SCHH treated with AhR or CAR activators were expressed by a fold change, compared to the gene expressions without the treatment. The 2^−ΔΔCt method ([Livak and Schmittgen, 2001]) was used to analyze the relative changes in gene expression, where the Ct is the cycle number at which the fluorescence in the reaction crosses the preset arbitrary threshold; the ΔCt represents the difference between the Ct target and reference and the ΔΔCt is the difference between the ΔCt of the test and the ΔCt of the preassigned control. Gene expression for each condition is expressed as a fold-change of mean ± standard deviation (SD) from three independent donors (each performed in triplicate). All primer and probe sets were purchased from Life Technologies (Table 2). When concentration-dependent induction observed, the in vitro induction mRNA data were fitted using the sigmoid 3-parameter equation in GraphPad Prism (La Jolla, CA) to estimate the in vitro concentration of inducer that produced half the maximum induction values (EC50).

[5] = system: ABCB1 (MDR1); assay: as above; assay type: cell-based; conditions: SCHH, 72 h; TCDD 50 nM, OP 50 µM, CITCO 5 µM, PB 1,000 µM (highest conc.); mean ± SD, three donors
Protocol: as §1, §2

[6] = system: ABCB11 (BSEP); assay: as above; assay type: cell-based; conditions: SCHH, 72 h; TCDD 50 nM, OP 50 µM, CITCO 5 µM, PB 1,000 µM (highest conc.); mean ± SD, three donors
Protocol: as §1, §2

[7] = system: ABCC2 (MRP2); assay: as above; assay type: cell-based; conditions: SCHH, 72 h; TCDD 50 nM, OP 50 µM, CITCO 5 µM, PB 1,000 µM (highest conc.); mean ± SD, three donors
Protocol: as §1, §2

[8] = system: ABCC3 (MRP3); assay: as above; assay type: cell-based; conditions: SCHH, 72 h; TCDD 50 nM, OP 50 µM, CITCO 5 µM, PB 1,000 µM (highest conc.); mean ± SD, three donors
Protocol: as §1, §2

[9] = system: ABCC4 (MRP4); assay: as above; assay type: cell-based; conditions: SCHH, 72 h; TCDD 50 nM, OP 50 µM, CITCO 5 µM, PB 1,000 µM (highest conc.); mean ± SD, three donors
Protocol: as §1, §2

[10] = system: ABCC5 (MRP5); assay: as above; assay type: cell-based; conditions: SCHH, 72 h; TCDD 50 nM, OP 50 µM, CITCO 5 µM, PB 1,000 µM (highest conc.); mean ± SD, three donors
Protocol: as §1, §2

[11] = system: ABCC6 (MRP6); assay: as above; assay type: cell-based; conditions: SCHH, 72 h; TCDD 50 nM, OP 50 µM, CITCO 5 µM, PB 1,000 µM (highest conc.); mean ± SD, three donors
Protocol: as §1, §2

[12] = system: SLC22A1 (OCT1); assay: as above; assay type: cell-based; conditions: SCHH, 72 h; TCDD 50 nM, OP 50 µM, CITCO 5 µM, PB 1,000 µM (highest conc.); mean ± SD, three donors
Protocol: as §1, §2

[13] = system: SLC47A1 (MATE1); assay: as above; assay type: cell-based; conditions: SCHH, 72 h; TCDD 50 nM, OP 50 µM, CITCO 5 µM, PB 1,000 µM (highest conc.); mean ± SD, three donors
Protocol: as §1, §2

[14] = system: SLCO1B1 (OATP1B1); assay: as above; assay type: cell-based; conditions: SCHH, 72 h; TCDD 50 nM, OP 50 µM, CITCO 5 µM, PB 1,000 µM (highest conc.); mean ± SD, three donors
Protocol: as §1, §2

[15] = system: SLCO1B3 (OATP1B3); assay: as above; assay type: cell-based; conditions: SCHH, 72 h; TCDD 50 nM, OP 50 µM, CITCO 5 µM, PB 1,000 µM (highest conc.); mean ± SD, three donors
Protocol: as §1, §2

[16] = system: SLCO2B1 (OATP2B1); assay: as above; assay type: cell-based; conditions: SCHH, 72 h; TCDD 50 nM, OP 50 µM, CITCO 5 µM, PB 1,000 µM (highest conc.); mean ± SD, three donors
Protocol: as §1, §2

[17] = system: SLCO4C1 (OATP4C1); assay: as above; assay type: cell-based; conditions: SCHH, 72 h; TCDD 50 nM, OP 50 µM, CITCO 5 µM, PB 1,000 µM (highest conc.); mean ± SD, three donors
Protocol: as §1, §2

[18] = system: SLC10A1 (NTCP); assay: as above; assay type: cell-based; conditions: SCHH
Protocol: A RNeasy 96 Kit (Qiagen) was used to extract the total cellular RNA from sandwich cultured hepatocytes in 96-well plates following the manufacturer's instructions. A total volume of 200 μL RNA was obtained via the column elution provided in the RNeasy kit. Five μL RNA extraction was mixed with TaqMan® Fast Virus 1-Step Master Mix (Life Technologies) in a final reaction volume of 20 μL and qRT-PCR was achieved using a QuantStudio 6 Flex Real-Time PCR System (Life Technologies), following the manufacturer's instructions. β-actin mRNA expression in the SCHH was used as a house-keeping gene for the normalization of target gene expressions. The mRNA levels in SCHH treated with AhR or CAR activators were expressed by a fold change, compared to the gene expressions without the treatment. The 2^−ΔΔCt method ([Livak and Schmittgen, 2001]) was used to analyze the relative changes in gene expression, where the Ct is the cycle number at which the fluorescence in the reaction crosses the preset arbitrary threshold; the ΔCt represents the difference between the Ct target and reference and the ΔΔCt is the difference between the ΔCt of the test and the ΔCt of the preassigned control. Gene expression for each condition is expressed as a fold-change of mean ± standard deviation (SD) from three independent donors (each performed in triplicate). […] When concentration-dependent induction observed, the in vitro induction mRNA data were fitted using the sigmoid 3-parameter equation in GraphPad Prism (La Jolla, CA) to estimate the in vitro concentration of inducer that produced half the maximum induction values (EC50).

[19] = system: SLC15A1 (PEPT1); assay: as above; assay type: cell-based; conditions: SCHH, 72 h; TCDD 50 nM, OP 50 µM, CITCO 5 µM, PB 1,000 µM (highest conc.); mean ± SD, three donors
[20] = system: SLC16A1 (MCT1); assay: as above; assay type: cell-based; conditions: SCHH, 72 h; TCDD 50 nM, OP 50 µM, CITCO 5 µM, PB 1,000 µM (highest conc.); mean ± SD, three donors
[21] = system: SLC22A7 (OAT2); assay: as above; assay type: cell-based; conditions: SCHH, 72 h; TCDD 50 nM, OP 50 µM, CITCO 5 µM, PB 1,000 µM (highest conc.); mean ± SD, three donors
[22] = system: SLC22A9 (OAT7); assay: as above; assay type: cell-based; conditions: SCHH, 72 h; TCDD 50 nM, OP 50 µM, CITCO 5 µM, PB 1,000 µM (highest conc.); mean ± SD, three donors
[23] = system: SLC22A5 (OCTN2); assay: as above; assay type: cell-based; conditions: SCHH, 72 h; TCDD 50 nM, OP 50 µM, CITCO 5 µM, PB 1,000 µM (highest conc.); mean ± SD, three donors
[24] = system: SLC29A1 (ENT1); assay: as above; assay type: cell-based; conditions: SCHH, 72 h; TCDD 50 nM, OP 50 µM, CITCO 5 µM, PB 1,000 µM (highest conc.); mean ± SD, three donors
[25] = system: SLC29A2 (ENT2); assay: as above; assay type: cell-based; conditions: SCHH, 72 h; TCDD 50 nM, OP 50 µM, CITCO 5 µM, PB 1,000 µM (highest conc.); mean ± SD, three donors
[26] = system: SLC51A (OSTα); assay: as above; assay type: cell-based; conditions: SCHH, 72 h; TCDD 50 nM, OP 50 µM, CITCO 5 µM, PB 1,000 µM (highest conc.); mean ± SD, three donors
[27] = system: SLC51B (OSTβ); assay: as above; assay type: cell-based; conditions: SCHH, 72 h; TCDD 50 nM, OP 50 µM, CITCO 5 µM, PB 1,000 µM (highest conc.); mean ± SD, three donors
[28] = SCHH, 72 h, TCDD 50 nM, OP 50 µM, CITCO 5 µM, PB 1,000 µM (highest conc.), mean ± SD, three donors

Clc1cc2c(cc1Cl)Oc1cc(Cl)c(Cl)cc1O2 [TCDD, 2,3,7,8-tetrachlorodibenzo-p-dioxin]
CYP1A1 mRNA fold change [1, 28]: 38 fold and 38.1 ± 19.2 fold
EC50 at 72 h ([1]; human): 0.5 ± 0.11 nM
CYP3A4 mRNA fold change in single donors [2]: < 0.5 fold
CYP2C9 mRNA fold change [3]: 0.8 ± 0.3 fold
UGT1A1 mRNA fold change [4, 28]: 4.3 fold and 4.3 ± 1.5 fold
EC50 at 72 h ([4]; human): 1.56 ± 0.4 nM
ABCB1 (MDR1) mRNA fold change [5]: 1.0 ± 0.3 fold
ABCB11 (BSEP) mRNA fold change [6]: 0.7 ± 0.3 fold
ABCC2 (MRP2) mRNA fold change [7]: 0.9 ± 0.3 fold
ABCC3 (MRP3) mRNA fold change [8]: 1.0 ± 0.2 fold
ABCC4 (MRP4) mRNA fold change [9]: 0.7 ± 0.2 fold
ABCC5 (MRP5) mRNA fold change [10]: 0.9 ± 0.3 fold
ABCC6 (MRP6) mRNA fold change [11]: 0.8 ± 0.2 fold
SLC22A1 (OCT1) mRNA fold change [12]: 0.7 ± 0.3 fold
SLC47A1 (MATE1) mRNA fold change [13]: 0.9 ± 0.3 fold
SLCO1B1 (OATP1B1) mRNA fold change [14]: 1.0 ± 0.4 fold
SLCO1B3 (OATP1B3) mRNA fold change [15]: 0.8 ± 0.5 fold
SLCO2B1 (OATP2B1) mRNA fold change [16]: 1.1 ± 0.4 fold
SLCO4C1 (OATP4C1) mRNA fold change [17]: 0.8 ± 0.3 fold
SLC10A1 (NTCP) mRNA fold change ([18]; 72 h, TCDD 50 nM, OP 50 µM, CITCO 5 µM, PB 1,000 µM (highest conc.), mean ± SD, three donors): 0.5 ± 0.2 fold
SLC10A1 gene suppression (reduction) ([18]; 3 days, highest concentration treated): about 2 fold
SLC15A1 (PEPT1) mRNA fold change [19]: 1.2 ± 0.3 fold
SLC16A1 (MCT1) mRNA fold change [20]: 1.0 ± 0.2 fold
SLC22A7 (OAT2) mRNA fold change [21]: 0.8 ± 0.2 fold
SLC22A9 (OAT7) mRNA fold change [22]: 0.9 ± 0.2 fold
SLC22A5 (OCTN2) mRNA fold change [23]: 1.1 ± 0.2 fold
SLC29A1 (ENT1) mRNA fold change [24]: 0.9 ± 0.4 fold
SLC29A2 (ENT2) mRNA fold change [25]: 1.0 ± 0.2 fold
SLC51A (OSTα) mRNA fold change [26]: 1.5 ± 0.3 fold
SLC51B (OSTβ) mRNA fold change [27]: 1.6 ± 0.3 fold
